Laboratory results reported in patent US12485169B2, “Compounds” (GREY WOLF THERAPEUTICS LIMITED, priority 2018, dated 2025).

Target: T1, Purified ERAP1 (37-941)-10His (ERAP1) (Homo sapiens, UniProt Q9NZ08)
T1 construct: Purified ERAP1 (37-941)-10His (ERAP1)
Assay: ERAP1 mediated hydrolysis of an amide substrate (10-mer inhibition assay), biochemical system
Conditions: 10-mer substrate, 23° C., 1 h, excitation 279 nm / emission 355 nm; read-out: IC50 vs Decapeptide WRVYEKC(Dnp)ALK-acid (where Dnp is Dinitrophenyl maleimide) (10-mer)
Protocol: However, as ERAP1 hydrolyses the N-terminal amide bond and tryptophan is released this internal quenching is lost and the reaction is monitored by the increase in tryptophan fluorescence over the course of the assay. For the purposes of this application this assay is referred to as the “10mer inhibition assay” and compound potencies are calculated and expressed as IC50 as would be familiar to a person skilled in the art.
Biological Assay 1: ERAP1 Mediated Hydrolysis of an Amide Substrate Measured in a Biochemical System
Decapeptide WRVYEKC(Dnp)ALK-acid (where Dnp is Dinitrophenyl maleimide) (10-mer) L-Leucine 7-amido-4-methylcoumarin (L-AMC)
12.5 μL ERAP1 enzyme in 1×AB was combined with 250 nL test compound in DMSO. […] For detection, plates were read at excitation 365 nm and emission 442 nm (L-AMC) or excitation 279 nm and emission 355 nm (10-mer).

T1 sequence (Q9NZ08 37-941): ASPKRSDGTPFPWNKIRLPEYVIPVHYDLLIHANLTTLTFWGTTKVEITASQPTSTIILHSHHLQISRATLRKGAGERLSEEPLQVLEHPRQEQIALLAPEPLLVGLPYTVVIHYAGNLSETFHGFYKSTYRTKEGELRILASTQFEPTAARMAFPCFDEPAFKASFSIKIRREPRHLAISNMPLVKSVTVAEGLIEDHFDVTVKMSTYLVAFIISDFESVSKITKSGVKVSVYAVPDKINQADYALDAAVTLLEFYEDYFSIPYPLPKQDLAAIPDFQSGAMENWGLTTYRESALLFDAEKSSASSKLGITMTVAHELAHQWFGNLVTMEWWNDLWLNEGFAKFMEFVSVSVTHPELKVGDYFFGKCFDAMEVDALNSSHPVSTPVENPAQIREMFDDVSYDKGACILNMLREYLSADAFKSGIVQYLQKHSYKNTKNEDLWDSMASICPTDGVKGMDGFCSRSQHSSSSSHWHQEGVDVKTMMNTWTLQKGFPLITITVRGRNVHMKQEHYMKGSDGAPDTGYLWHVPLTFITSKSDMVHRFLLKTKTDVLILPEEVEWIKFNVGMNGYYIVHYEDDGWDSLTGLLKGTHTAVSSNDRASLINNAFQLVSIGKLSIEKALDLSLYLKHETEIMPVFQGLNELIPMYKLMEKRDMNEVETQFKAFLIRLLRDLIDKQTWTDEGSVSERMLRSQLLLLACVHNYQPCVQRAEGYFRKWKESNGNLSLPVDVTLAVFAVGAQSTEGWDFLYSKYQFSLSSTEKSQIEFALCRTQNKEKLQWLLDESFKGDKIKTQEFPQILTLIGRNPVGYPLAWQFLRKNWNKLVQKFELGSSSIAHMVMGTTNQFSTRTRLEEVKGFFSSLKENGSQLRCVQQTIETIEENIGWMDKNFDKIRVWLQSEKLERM

`COc1ccc(C(=O)O)cc1S(=O)(=O)Nc1cc(C(F)(F)F)ccc1N1CCN(C(C)=O)CC1` [Example 34, 3-(N-(2-(4-acetylpiperazin-1-yl)-5-(trifluoromethyl)phenyl)sulfamoyl)-4-methoxybenzoic acid] was tested, and the IC50 was > 5 µM.

In the case of `COc1ccc(C(=O)O)cc1S(=O)(=O)Nc1cc(C(F)(F)F)ccc1N1CCC(O)CC1` [Example 35, 3-(N-(2-(4-hydroxypiperidin-1-yl)-5-(trifluoromethyl)phenyl)sulfamoyl)-4-methoxybenzoic acid], the IC50 is reported as < 0.5 µM.

With `COc1ccc(C(=O)O)cc1S(=O)(=O)Nc1cc(C(F)(F)F)ccc1N1CCC(O)C1` (stereo not shown) [Example 36, 3-(N-(2-(3-hydroxypyrrolidin-1-yl)-5-(trifluoromethyl)phenyl)sulfamoyl)-4-methoxybenzoic acid] the IC50 was < 5 µM.

`COc1ccc(C(=O)O)cc1S(=O)(=O)Nc1cc(C(F)(F)F)ccc1N1CC(O)C1` [Example 37, 3-(N-(2-(3-hydroxyazetidin-1-yl)-5-(trifluoromethyl)phenyl)sulfamoyl)-4-methoxybenzoic acid] was tested, and the IC50 was < 5 µM.

For `COc1ccc(C(=O)O)cc1S(=O)(=O)Nc1cc(C(F)(F)F)ccc1N1CCC(C)(C)C1` [Example 39, 3-(N-(2-(3,3-dimethylpyrrolidin-1-yl)-5-(trifluoromethyl)phenyl)sulfamoyl)-4-methoxybenzoic acid], the IC50 was < 5 µM.

For `COc1ccc(C(=O)O)cc1S(=O)(=O)Nc1cc(C(F)(F)F)ccc1N1CCN2CCC[C@@H]2C1` [Example 40, (R)-3-(N-(2-(hexahydropyrrolo[1,2-a]pyrazin-2(1H)-yl)-5-(trifluoromethyl)phenyl)sulfamoyl)-4-methoxybenzoic acid], the IC50 was < 5 µM.

With `COc1ccc(C(=O)O)cc1S(=O)(=O)Nc1cc(C(F)(F)F)ccc1N1CCCCC1=O` [Example 41, 4-methoxy-3-(N-(2-(2-oxopiperidin-1-yl)-5-(trifluoromethyl)phenyl)sulfamoyl)benzoic acid] the IC50 was < 0.5 µM.

In the case of `Cc1ccc(C(=O)O)cc1S(=O)(=O)Nc1cc(C(F)(F)F)ccc1N1CCCOCC1` [Example 42, 3-(N-(2-(1,4-oxazepan-4-yl)-5-(trifluoromethyl)phenyl)sulfamoyl)-4-methylbenzoic acid], the IC50 is reported as > 5 µM.

In the case of `CCc1ccc(C(=O)O)cc1S(=O)(=O)Nc1cc(C(F)(F)F)ccc1N1CCCOCC1` [Example 43, 3-(N-(2-(1,4-oxazepan-4-yl)-5-(trifluoromethyl)phenyl)sulfamoyl)-4-ethylbenzoic acid], the IC50 is reported as < 0.5 µM.

`COc1ccc(C(=O)O)cc1S(=O)(=O)Nc1cc(C(F)(F)F)ccc1N1CCCC1c1cc(C)no1` (stereo not shown) [Example 46, 4-methoxy-3-(N-(2-(2-(3-methylisoxazol-5-yl)pyrrolidin-1-yl)-5-(trifluoromethyl)phenyl)sulfamoyl)benzoic acid] was tested, and the IC50 was < 5 µM.

`COc1ccc(C(=O)O)cc1NS(=O)(=O)c1cc(C(F)(F)F)ccc1N1CCCCC1` [Example 49, 4-methoxy-3-((2-(piperidin-1-yl)-5-(trifluoromethyl)phenyl)sulfonamido)benzoic acid] was tested, and the IC50 was < 0.5 µM.

With `COc1ccc(C(=O)O)cc1NS(=O)(=O)c1cc(C(F)(F)F)ccc1N(C)C` [Example 51, 3-((2-(dimethylamino)-5-(trifluoromethyl)phenyl)sulfonamido)-4-methoxybenzoic acid] the IC50 was < 0.5 µM.

For `COc1ccc(C(=O)O)cc1NS(=O)(=O)c1cc(C(F)(F)F)ccc1N1CCOCC1` [Example 52, 4-methoxy-3-((2-morpholino-5-(trifluoromethyl)phenyl)sulfonamido)benzoic acid], the IC50 was < 5 µM.

For `COc1ccc(C(=O)O)cc1S(=O)(=O)Nc1cc(C(F)(F)F)ccc1N1CCCCC1` [Example 54, 4-methoxy-3-(N-(2-(piperidin-1-yl)-5-(trifluoromethyl)phenyl)sulfamoyl)benzoic acid], the IC50 was < 0.5 µM.

For `CC(C)c1ccc(C(=O)O)cc1S(=O)(=O)Nc1cc(C(F)(F)F)ccc1N1CCCCCC1` [Example 55, 3-(N-(2-(azepan-1-yl)-5-(trifluoromethyl)phenyl)sulfamoyl)-4-isopropylbenzoic acid], the IC50 was < 0.5 µM.

For `O=C(O)c1cc(F)cc(S(=O)(=O)Nc2cc(C(F)(F)F)ccc2N2CCCCC2)c1` [Example 59, 3-fluoro-5-(N-(2-(piperidin-1-yl)-5-(trifluoromethyl)phenyl)sulfamoyl)benzoic acid], the IC50 was < 0.5 µM.

For `CCc1ccc(C(=O)O)cc1S(=O)(=O)Nc1cc(C(F)(F)F)ccc1N1CCCCCC1` [Example 61, 3-(N-(2-(azepan-1-yl)-5-(trifluoromethyl)phenyl)sulfamoyl)-4-ethylbenzoic acid], the IC50 was > 5 µM.

For `Cc1ccc(C(=O)O)cc1S(=O)(=O)Nc1cc(C(F)(F)F)ccc1N1CCCCCC1` [Example 62, 3-(N-(2-(azepan-1-yl)-5-(trifluoromethyl)phenyl)sulfamoyl)-4-methylbenzoic acid], the IC50 was < 0.5 µM.

For `COc1ccc(-c2nn[nH]n2)cc1NS(=O)(=O)c1cc(C(F)(F)F)ccc1N1CCCCC1` [Example 63, N-(2-methoxy-5-(tetrazol-5-yl)phenyl)-2-(piperidin-1-yl)-5-(trifluoromethyl) benzenesulfonamide], the IC50 was < 5 µM.

For `COc1ccc(C(=O)O)cc1S(=O)(=O)Nc1ccc(Cl)cc1N1CCCCC1` [Example 65, 3-(N-(4-chloro-2-(piperidin-1-yl)phenyl)sulfamoyl)-4-methoxybenzoic acid], the IC50 was < 0.5 µM.

`COc1ccc(C(=O)O)cc1S(=O)(=O)Nc1cc(Cl)ccc1N1CCCCC1` [Example 66, 3-(N-(5-chloro-2-(piperidin-1-yl)phenyl)sulfamoyl)-4-methoxybenzoic acid] was tested, and the IC50 was < 0.5 µM.

`Cc1ccc(C(=O)O)cc1S(=O)(=O)Nc1cc(C(F)(F)F)ccc1N1CCCCC1` [Example 67, 4-methyl-3-(N-(2-(piperidin-1-yl)-5-(trifluoromethyl)phenyl)sulfamoyl)benzoic acid] was tested, and the IC50 was < 0.5 µM.

With `COc1ccc(C(=O)O)cc1S(=O)(=O)Nc1cc(C(F)(F)F)ccc1N1CCCCCC1` [Example 68, 3-(N-(2-(azepan-1-yl)-5-(trifluoromethyl)phenyl)sulfamoyl)-4-methoxybenzoic acid] the IC50 was < 0.5 µM.

For `Cc1ccc(S(=O)(=O)Nc2cc(C(F)(F)F)ccc2N2CCCCC2)cc1C(=O)O` [Example 70, 2-methyl-5-(N-(2-(piperidin-1-yl)-5-(trifluoromethyl)phenyl)sulfamoyl)benzoic acid], the IC50 was < 5 µM.

In the case of `COc1ccc(C(=O)O)cc1S(=O)(=O)Nc1cc(C(F)(F)F)ccc1N1CCOCC1` [Example 72, 4-methoxy-3-(N-(2-morpholino-5-(trifluoromethyl)phenyl)sulfamoyl)benzoic acid], the IC50 is reported as < 0.5 µM.

`COc1ccc(C(=O)O)cc1S(=O)(=O)Nc1cc(C(F)(F)F)ccc1N1CCCC1` [Example 75, 4-methoxy-3-(N-(2-(pyrrolidin-1-yl)-5-(trifluoromethyl)phenyl)sulfamoyl)benzoic acid] was tested, and the IC50 was < 5 µM.

For `COc1ccc(C(=O)O)cc1S(=O)(=O)Nc1cc(C(F)(F)F)ccc1N(C)C` [Example 77, 3-(N-(2-(dimethylamino)-5-(trifluoromethyl)phenyl)sulfamoyl)-4-methoxybenzoic acid], the IC50 was < 5 µM.

For `O=C(O)c1cc(Cl)cc(S(=O)(=O)Nc2cc(C(F)(F)F)ccc2N2CCCCC2)c1` [Example 80, 3-chloro-5-(N-(2-(piperidin-1-yl)-5-(trifluoromethyl)phenyl)sulfamoyl)benzoic acid], the IC50 was < 5 µM.
